Results published in patent publication US20120021992A1, “METHODS FOR IMPROVING NEUROLOGICAL OUTCOME AFTER NEURAL INJURY AND NEURODEGENERATIVE DISEASE” (Henry Ford Health System, priority 2009, published 2012).

Columns and labels:
[1] = system: experimental autoimmune encephalomyelitis (EAE) mice; assay: Experimental autoimmune encephalomyelitis (EAE) model of multiple sclerosis; format: in vivo, mouse; details: 6 mg/kg IP, up to 30 days, versus control, p<0.01 (FIG. 9)
Protocol: (§1) Effectiveness of treatment with thymosin β4 was tested in stroke (middle cerebral artery occlusion (MCAo)) rats and in experimental autoimmune encephalomyelitis (EAE) mice (a well-established in vivo model for multiple sclerosis). Both the stroke rats and the EAE mice were treated with 6 mg/kg thymosin β4 intraperitoneally (IP) in a volume of 0.3 mL twenty-four hours after stroke or after the day of immunization in the EAE model and then every three days (6 mg/kg IP) for four additional doses. An equal volume of saline was administered (IP) to a group of both stroke rats and EAE mice as a control. Bromodeoxyuridine (BrdU; 100 mg/kg) was administered (IP) daily for seven days, initiated 24 hours after MCAo to label proliferating cells. Behavioral tests (adhesive removable test and NSS (Neurological Severity Score)) were performed immediately before treatment and at days 1, 7, 14, 21, 28, 35, 42, 49, and 56 days after MCAo and up to 30 days in the EAE mouse model. All rats were sacrificed 56 days after MCAo; EAE mice were sacrificed at 30 days.

[2] = system: stroke (middle cerebral artery occlusion (MCAo)) rats; assay: Embolic middle cerebral artery occlusion (MCAo) stroke model; format: in vivo, rat
Protocol: as §1

[3] = embolic stroke rats, 6 mg/kg IP, versus saline control

thymosin β4
functional neurological score [1]: robust improvement | number of myelinated axons ([2]; after MCAo, Bielschowsky and Luxol Fast Blue staining, p<0.05 (FIG. 4)): increased | cellular proliferation (BrdU expression, number of BrdU immunoreactive cells) ([2]; after MCAo, p<0.05 (FIG. 8)): also increased | number of oligodendrocyte progenitors and matured oligodendrocytes ([2]; after MCAo, p<0.05 (FIGS. 5-7)): increased | functional outcome by behavioral tests (adhesive removal test, NSS) ([2]; beginning at 21 days after stroke onset, 6 mg/kg IP, p<0.05 (FIG. 1-2)): Significant functional improvement | relative increase in BrdU expression in the striatum or myelinated region of the rat brain ([2]; embolic stroke rats, 6 mg/kg IP from 24 h after MCAo, then every three days for four additional doses, versus saline control): 42% | increase in CNP, a marker of mature oligodendrocytes [2, 3]: 11% | increase in NG-2, a marker of immature oligodendrocytes [2, 3]: 47%
